A short description of data set [1]: Cytotoxicity against human MCF10A cells at 7.8 to 1000 uM after 24 hrs by XTT assay. The class given is toxicity, cell-based. To be noted: mcf-10a. On the technique in general: Tetrazolium dyes change colour on reduction, which living cells bring about.
A short description of data set [2]: Cytotoxicity against human A549 cells after 24 hrs by XTT assay. It is filed as functional, cell-based. The conditions noted are these: A549, 24 h.
Data set [3] in a line: Cytotoxicity against human HeLa cells after 24 hrs by XTT assay. It is filed as functional, cell-based.
The nature of data set [4]: Cytotoxicity against human MCF7 cells after 24 hrs by XTT assay. To be noted: MCF7, 24 h.

For `C[C@H]1CCC(=O)/C=C/C(=O)c2c(O)cc(O)cc2CC(=O)O1`, the Activity result in data set [1] was “Non-Toxic”.
Same read-out and setting: as for `COC(=O)[C@@]1(O)CS[C@H]2CCC[C@H](C)OC(=O)Cc3cc(O)cc(O)c3C(=O)[C@@H]21`, the entry is “Non-Toxic”.
Same read-out and setting: then `C[C@H]1CCC[C@@H]2SC[C@](O)(C(=O)O)[C@H]2C(=O)c2c(O)cc(O)cc2CC(=O)O1`, with “Non-Toxic”; and `C[C@H]1CCC[C@H]2O[C@H]2C(=O)c2c(O)cc(O)cc2CC(=O)O1`, with “Non-Toxic”.
Usually IC50 stands for the midpoint of a concentration-inhibition curve. Read a low IC50 as greater potency in that assay. As for `COc1cccc2c1C(=O)c1c(O)c3c(c(O)c1C2=O)C[C@@](O)(C(=O)CO)C[C@@H]3O[C@H]1C[C@H](N)[C@H](O)[C@H](C)O1` [DOXORUBICIN], the IC50 in data set [2] came to 190 nM; in data set [3] it was 140 nM; in data set [4], 120 nM.

Source of the values: ChEMBL document CHEMBL3853308, “Condensation of Macrocyclic Polyketides Produced by Penicillium sp. DRF2 with Mercaptopyruvate Represents a New Fungal Detoxification Pathway” (J Nat Prod, 2016).
